No end group written: not given here.
Assays:
[1] = test system: adenylyl cyclase (AC); settings: cited from earlier work
[2] = test system: ovariectomized rat model; settings: cited from earlier work
[3] = test system: ovariectomized rats; experiment: Efficacy testing of PTH analogs in ovariectomized rats; assay type: in vivo, Sprague Dawley rats; settings: for proximal tibia trabecular bone mineral density (BMD) by pQCT: Week 20; for osteocalcin (bone formation marker): plasma
Experimental: To compare their effects in bone, amidated fragments of human parathyroid hormone (PTH) were evaluated in the ovariectomized rat model. Aged female Sprague Dawley rats were subject to bilateral ovariectomy or sham surgery. The animals were held untreated for a period of 8 weeks to allow the development of osteopenia. At that point, the ovariectomized animals were segregated into groups, and each group received daily subcutaneous injection of either vehicle or one of the following PTH fragments: PTH[1-30]NH2, PTH[1-31]NH2, PTH[1-32]NH2, PTH[1-33]NH2, and PTH[1-34]NH2 at a dose of 9.7 nmol/Kg. Treatment continued for a period of twelve weeks. Primary measures of analyses were 1) bone mineral density (BMD) of the spine (L3-L6) as determined by Dual Energy X-Ray Absorptiometry (DXA), 2) trabecular BMD of the proximal tibia as determined by peripheral Quantitative Computed Tomography (pQCT)and 3) evaluation of cortical bone in the distal tibia by PQCT. Secondary measures included urinary deoxypyridinoline (bone resorption marker), plasma osteocalcin (bone formation marker), histomorphometry of trabecular bone from the fourth lumbar vertebra (L4) and cortical bone from the distal tibia, microcomputed tomography (μCT), and bone strength tests of the spine and femur. Bone strength analysis was done on the femoral midshaft and a lumbar vertebral body.
In other experiments involving an ovariectomized rat model for osteoporosis, good efficacy is shown for the pharmaceutical agents of the invention. For example, the groups used in the study were: Sham, OVX (ovariectomized rats), OVX+PTH(1-30)NH2, OVX+PTH(1-31)NH2, OVX +PTH(1-32)NH2, OVX +PTH(1-33)NH2 and OVX +PTH(1-34)NH2.

[4] = 9.7 nmol/Kg daily subcutaneous injection, twelve weeks

Substance | proximal tibia trabecular bone mineral density (BMD) by pQCT [3] | bone formation rate/bone surface (BFR/BS) on the periosteal surface ([3]; compared to OVX) | cortical bone mass, bone formation on periosteal and endosteal bone surfaces (anabolic effect) ([3]; rat, in vivo) | osteocalcin (bone formation marker) [3] | other results
Ser Val Ser Glu Ile Gln Leu Met His Asn Leu Gly Lys His Leu Asn Ser Met Glu Arg Val Glu Trp Leu Arg Lys Lys Leu Gln Asp Val-NH2 [PTH[1-31]NH2] | continue to increase | increased BFR/BS | increased cortical bone mass | – | AC-stimulating activity [1]: has only AC-stimulating activity; restoration of bone loss [2]: fully active; total area ([3]; cortical bone): did not increase significantly except hPTH amide (1-31)
PTH[1-30]NH2: amidated fragment of human parathyroid hormone (PTH), 30 amino acids (SVSEIQLMHNLGKHLNSMERVEWLRKKLQD-NH2; UniProt P01270 32-61, looked up, fragment) | – | – | anabolic effect is weak | significant increase in osteocalcin was observed for all PTH fragment treated groups except for PTH(1-30)NH2 | increase in lumbar BMD (L3-L6) by DXA relative to the vehicle-treated ovariectomized animals [3, 4]: 13%; increase in maximal load, compression testing of a lumbar vertebral body, relative to vehicle-treated ovariectomized animals [3, 4]: 53%; effect on bone mass and strength (conclusion) ([3]; common dose): gain in bone mass that was of a smaller magnitude than the other fragments; bone formation rate/bone surface, trabecular bone ([3]; histomorphometry): anabolic effects of all hPTH amide fragments except hPTH(1-30); trabecular area (trabecular bone mass) ([3]; in contrast to OVX): increased trabecular bone mass in contrast to OVX except for the hPTH amide fragment (1-30); anabolic effectiveness overall (percent trabecular area, bone volume/total volume, trabecular thickness and number) ([3]; micro-CT and histomorphometry): less anabolically effective than the other fragments; cortical analysis of the midshaft of the femur by pQCT ([3]; rat, in vivo): all fragments to be effective except hPTH(1-30)NH2; indices of cortical bone strength derived from pQCT ([3]; rat, in vivo): no effect
PTH[1-32]NH2: C-terminal amidated human parathyroid hormone analog; hPTH-(1-32) sequence is SEQ ID NO:20 (SVSEIQLMHNLGKHLNSMERVEWLRKKLQDVH-NH2; listed as Homo sapiens) | continue to increase | – | increased cortical bone mass | – | percent porosity of the intracortex ([3]; compared to OVX): significantly increased when compared to OVX except hPTH(1-32) amide
PTH[1-33]NH2: C-terminal amidated human parathyroid hormone analog; hPTH-(1-33) sequence is SEQ ID NO:21 (SVSEIQLMHNLGKHLNSMERVEWLRKKLQDVHN-NH2; listed as Homo sapiens) | did not continue to increase | increased BFR/BS | increased cortical bone mass | – | –
PTH[1-34]NH2: amidated fragment of human parathyroid hormone (PTH), 34 amino acids; hPTH-(1-34) sequence is SEQ ID NO:1 | continue to increase | increased BFR/BS | increased cortical bone mass | significantly more increase than PTH amide fragments (1-31) and (1-32) | –

From patent US20060270603A1, “Amidated parathyroid hormone fragments and uses thereof” (Unigene Laboratories Inc., priority 2004, published 2006)
